Tests used:
[1] = Cytotoxicity against P-glycoprotein deficient wild type human LCC-6 cells after 72 hrs; type: functional, cell-based; conditions: LCC-6, 72 h
[2] = Cytotoxicity against human LCC-6 cells expressing P-glycoprotein after 72 hrs; type: functional, cell-based; conditions: LCC-6, 72 h
[3] = Resistance factor, ratio of IC50 for human LCC-6 cells expressing P-glycoprotein to IC50 for P-glycoprotein deficient wild type human LCC-6 cells; type: functional; parameters: reference not given here
MCF7 [4] = experiment: Cytotoxicity against P-glycoprotein deficient wild type human MCF7 cells after 72 hrs; type: functional, cell-based; conditions: MCF7, 72 h
MCF7 [5] = experiment: Cytotoxicity against human MCF7 cells expressing P-glycoprotein after 72 hrs; type: functional, cell-based; conditions: MCF7, 72 h
MCF7 [6] = experiment: Resistance factor, ratio of IC50 for human MCF7 cells expressing P-glycoprotein to IC50 for P-glycoprotein deficient wild type human MCF7 cells; type: functional
NCI-H460 = experiment: Cytotoxicity against human H460 cells after 72 hrs; type: functional, cell-based; conditions: NCI-H460, 72 h
HT-29 = experiment: Cytotoxicity against human HT-29 cells after 72 hrs; type: functional, cell-based; conditions: HT-29, 72 h

Row | Structure (SMILES) | IC50 [1] [nM] | IC50 [2] [nM] | Ratio [3] | IC50 (MCF7 [4]) [nM] | IC50 (MCF7 [5]) [nM] | Ratio (MCF7 [6]) | IC50 (NCI-H460) [nM] | IC50 (HT-29) [nM]
1 | CC(=O)O[C@@]12CO[C@@H]1C[C@H](O)[C@@]1(C)C(=O)[C@H](OC(=O)N(C)C)C3=C(C)[C@@H](OC(=O)[C@H](O)[C@@H](NC(=O)OC(C)(C)C)C(F)F)C[C@@](O)([C@@H](OC(=O)c4cccc(Cl)c4)[C@H]21)C3(C)C | 0.21 | 3.87 | 18 | 0.31 | 2.96 | 9.5 | 0.36 | 0.58
2 | COc1cccc(C(=O)O[C@H]2[C@@H]3[C@]4(OC(C)=O)CO[C@@H]4C[C@H](O)[C@@]3(C)C(=O)[C@H](OC(=O)N(C)C)C3=C(C)[C@@H](OC(=O)[C@H](O)[C@@H](NC(=O)OC(C)(C)C)C(F)F)C[C@]2(O)C3(C)C)c1 | 0.69 | 7.06 | 10 | 0.45 | 4.51 | 10 | 0.4 | 0.43
3 | CC(=O)O[C@H]1C(=O)[C@@]2(C)[C@H]([C@H](OC(=O)c3cccc(Cl)c3)[C@]3(O)C[C@H](OC(=O)[C@H](O)[C@@H](NC(=O)OC(C)(C)C)C(F)(F)F)C(C)=C1C3(C)C)[C@]1(OC(C)=O)CO[C@@H]1C[C@@H]2O | 0.22 | 4.96 | 23 | 0.4 | 5.04 | 13 | 0.5 | 0.85
4 | CC(=O)O[C@@]12CO[C@@H]1C[C@H](O)[C@@]1(C)C(=O)[C@H](OC(=O)N(C)C)C3=C(C)[C@@H](OC(=O)[C@H](O)[C@@H](NC(=O)OC(C)(C)C)C(F)(F)F)C[C@@](O)([C@@H](OC(=O)c4cccc(N=[N+]=[N-])c4)[C@H]21)C3(C)C | 1.27 | 3.52 | 2.8 | 0.47 | 2.61 | 5.6 | 0.3 | 0.5
5 | CC(=O)O[C@@]12CO[C@@H]1C[C@H](O)[C@@]1(C)C(=O)[C@H](OC(=O)N(C)C)C3=C(C)[C@@H](OC(=O)[C@H](O)[C@@H](NC(=O)OC(C)(C)C)C(F)F)C[C@@](O)([C@@H](OC(=O)c4cccc(F)c4)[C@H]21)C3(C)C | 0.69 | 10.6 | 15 | 0.52 | 8.13 | 16 | 0.2 | 0.35
6 | COC(=O)O[C@H]1C(=O)[C@@]2(C)[C@H]([C@H](OC(=O)c3cccc(Cl)c3)[C@]3(O)C[C@H](OC(=O)[C@H](O)[C@@H](NC(=O)OC(C)(C)C)C(F)(F)F)C(C)=C1C3(C)C)[C@]1(OC(C)=O)CO[C@@H]1C[C@@H]2O | 0.29 | 5.08 | 18 | 0.65 | 4.72 | 7.3 | 0.43 | 0.68
7 | CC(=O)O[C@H]1C(=O)[C@@]2(C)[C@H]([C@H](OC(=O)c3cccc(N=[N+]=[N-])c3)[C@]3(O)C[C@H](OC(=O)[C@H](O)[C@@H](NC(=O)OC(C)(C)C)C(F)(F)F)C(C)=C1C3(C)C)[C@]1(OC(C)=O)CO[C@@H]1C[C@@H]2O | 1.18 | 4 | 3.4 | 0.47 | 3.85 | 8.2 | 0.2 | 0.5
8 | CCC(=O)O[C@H]1C(=O)[C@@]2(C)[C@H]([C@H](OC(=O)c3cccc(N=[N+]=[N-])c3)[C@]3(O)C[C@H](OC(=O)[C@H](O)[C@@H](NC(=O)OC(C)(C)C)C(F)F)C(C)=C1C3(C)C)[C@]1(OC(C)=O)CO[C@@H]1C[C@@H]2O | 0.39 | 1.15 | 2.9 | 0.32 | 0.96 | 3 | 0.27 | 0.37
9 | COC(=O)O[C@H]1C(=O)[C@@]2(C)[C@H]([C@H](OC(=O)c3cccc(N=[N+]=[N-])c3)[C@]3(O)C[C@H](OC(=O)[C@H](O)[C@@H](NC(=O)OC(C)(C)C)C(F)F)C(C)=C1C3(C)C)[C@]1(OC(C)=O)CO[C@@H]1C[C@@H]2O | 0.26 | 2.06 | 7.9 | 1.69 | 2.56 | 1.5 | 0.23 | 0.36
10 | CCC(=O)O[C@H]1C(=O)[C@@]2(C)[C@H]([C@H](OC(=O)c3cccc(OC)c3)[C@]3(O)C[C@H](OC(=O)[C@H](O)[C@@H](NC(=O)OC(C)(C)C)C(F)F)C(C)=C1C3(C)C)[C@]1(OC(C)=O)CO[C@@H]1C[C@@H]2O | 0.69 | – | – | 1.14 | 4.05 | – | 0.4 | 0.59
11 | CC(=O)O[C@H]1C(=O)[C@@]2(C)[C@H]([C@H](OC(=O)c3cccc(F)c3)[C@]3(O)C[C@H](OC(=O)[C@H](O)[C@@H](NC(=O)OC(C)(C)C)C(F)F)C(C)=C1C3(C)C)[C@]1(OC(C)=O)CO[C@@H]1C[C@@H]2O | 0.52 | 10 | 19 | 0.44 | 5.33 | 13 | 0.2 | 0.35
12 | CCC(=O)O[C@H]1C(=O)[C@@]2(C)[C@H]([C@H](OC(=O)c3cccc(F)c3)[C@]3(O)C[C@H](OC(=O)[C@H](O)[C@@H](NC(=O)OC(C)(C)C)C(F)(F)F)C(C)=C1C3(C)C)[C@]1(OC(C)=O)CO[C@@H]1C[C@@H]2O | 0.82 | 4.27 | 5.2 | 0.68 | 3.78 | 5.6 | 0.59 | 1.15
13 | COC(=O)O[C@H]1C(=O)[C@@]2(C)[C@H]([C@H](OC(=O)c3cccc(OC)c3)[C@]3(O)C[C@H](OC(=O)[C@H](O)[C@@H](NC(=O)OC(C)(C)C)C(F)(F)F)C(C)=C1C3(C)C)[C@]1(OC(C)=O)CO[C@@H]1C[C@@H]2O | 0.27 | 3.99 | 15 | 0.17 | 2.88 | 17 | 0.38 | 0.53
14 | COC(=O)O[C@H]1C(=O)[C@@]2(C)[C@H]([C@H](OC(=O)c3cccc(OC)c3)[C@]3(O)C[C@H](OC(=O)[C@H](O)[C@@H](NC(=O)OC(C)(C)C)C(F)F)C(C)=C1C3(C)C)[C@]1(OC(C)=O)CO[C@@H]1C[C@@H]2O | 1.03 | 10.2 | 9.9 | 0.81 | 6.59 | 8.1 | 0.3 | 0.44
15 | CC(=O)O[C@H]1C(=O)[C@@]2(C)[C@H]([C@H](OC(=O)c3cccc(Cl)c3)[C@]3(O)C[C@H](OC(=O)[C@H](O)[C@@H](NC(=O)OC(C)(C)C)C(F)F)C(C)=C1C3(C)C)[C@]1(OC(C)=O)CO[C@@H]1C[C@@H]2O | 0.31 | 5.8 | 19 | 0.4 | 6.48 | 16 | 0.49 | 1.94
16 | CC(=O)O[C@H]1C(=O)[C@@]2(C)[C@H]([C@H](OC(=O)c3cccc(N=[N+]=[N-])c3)[C@]3(O)C[C@H](OC(=O)[C@H](O)[C@@H](NC(=O)OC(C)(C)C)C(F)F)C(C)=C1C3(C)C)[C@]1(OC(C)=O)CO[C@@H]1C[C@@H]2O | 0.22 | 1.57 | 7.1 | 0.32 | 1.68 | 5.3 | 0.48 | 0.57
17 | COc1cccc(C(=O)O[C@H]2[C@@H]3[C@]4(OC(C)=O)CO[C@@H]4C[C@H](O)[C@@]3(C)C(=O)[C@H](OC(=O)N(C)C)C3=C(C)[C@@H](OC(=O)[C@H](O)[C@@H](NC(=O)OC(C)(C)C)C(F)(F)F)C[C@]2(O)C3(C)C)c1 | 0.28 | 4.48 | 16 | 0.57 | 1.84 | 3.2 | 0.35 | 0.68
18 | COC(=O)O[C@H]1C(=O)[C@@]2(C)[C@H]([C@H](OC(=O)c3cccc(F)c3)[C@]3(O)C[C@H](OC(=O)[C@H](O)[C@@H](NC(=O)OC(C)(C)C)C(F)(F)F)C(C)=C1C3(C)C)[C@]1(OC(C)=O)CO[C@@H]1C[C@@H]2O | 0.39 | 5.81 | 15 | 0.31 | 4.88 | 16 | 0.61 | 0.85
19 | COC(=O)O[C@H]1C(=O)[C@@]2(C)[C@H]([C@H](OC(=O)c3cccc(N=[N+]=[N-])c3)[C@]3(O)C[C@H](OC(=O)[C@H](O)[C@@H](NC(=O)OC(C)(C)C)C(F)(F)F)C(C)=C1C3(C)C)[C@]1(OC(C)=O)CO[C@@H]1C[C@@H]2O | 1.09 | 4 | 3.7 | 0.47 | 2.92 | 6.2 | 0.2 | 0.4
20 | COc1cccc(C(=O)O[C@H]2[C@@H]3[C@]4(OC(C)=O)CO[C@@H]4C[C@H](O)[C@@]3(C)C(=O)[C@H](OC(C)=O)C3=C(C)[C@@H](OC(=O)[C@H](O)[C@@H](NC(=O)OC(C)(C)C)C(F)F)C[C@]2(O)C3(C)C)c1 | 0.26 | 5.57 | 21 | 0.34 | 4.16 | 12 | 0.38 | 0.52
21 | COC(=O)O[C@H]1C(=O)[C@@]2(C)[C@H]([C@H](OC(=O)c3cccc(Cl)c3)[C@]3(O)C[C@H](OC(=O)[C@H](O)[C@@H](NC(=O)OC(C)(C)C)C(F)F)C(C)=C1C3(C)C)[C@]1(OC(C)=O)CO[C@@H]1C[C@@H]2O | 0.13 | 1.82 | 14 | 0.26 | 2.08 | 8 | 0.25 | 0.29

Reference: ChEMBL document CHEMBL1152321, “Recent advances in the chemistry and biology of new generation taxoids” (J Nat Prod, 2009)
